Measured values taken from patent US20230320984A1, “TOFACITINIB-CONTAINING ANHYDROUS ELASTOMER-BASED GEL FORMULATIONS” (Vyne Therapeutics Inc., priority 2022, published 2023).
Where a name gives a salt, the structure may show the parent alone. Read-outs that look alike come from different tables or passages of the source.

Columns and labels:
[1] = system: Hartley-derived albino guinea pigs; details: for test animals with erythema scores of 1 / test animals with erythema scores of 2: 0.1% w/v DNCB challenge
Description: A DNCB positive control group consisting of 10 DNCB test and 10 DNCB control guinea pigs are included in this study. The animals are treated as below with the DNCB test animals receiving 0.1% w/v DNCB in acetone and ethanol for induction and 0.1% and 0.05% w/v DNCB in acetone and ethanol for challenge.
The Test Article, placebo control, and the appropriate positive control articles are administered dermally for approximately 6 hours once on Days 0, 7, and 14 for inductions 1 to 3. The animals are reclipped on the day prior to dosing or induction to visualize the test sites clearly for grading. Following a 2-week rest period, a challenge (Day 28) is performed for Test Article group and placebo group on the same animal but on a different test site than the induction site. During the challenge phase the 20 Test Article group and 10 common challenge control guinea pigs are topically treated with Test Article and the 20 placebo control article and the same 10 common challenge control guinea pigs (separate test sites) are topically treated with placebo. Challenge responses for each of these groups are compared with those of the common challenge control animals. If challenge results are considered indefinite a rechallenge is conducted.
On the day prior to the first DNCB induction or dose administration (Day −1), the hair is removed from the left side of the test animals with a small animal clipper. Care is taken to avoid abrading the skin during the clipping procedures. On the day following clipping (Day 0), chambers containing the appropriate material are applied to the clipped area of the test animals and DNCB test animals. For the induction and challenge phases, a dose of 0.3 mL (or maximum volume for viscous materials) is placed on a 25 mm Hill Top Chamber® backed by adhesive tape (occlusive patch). The chambers are then applied to the clipped surface as quickly as possible.
The application site for induction is moved when irritation persists from a previous induction exposure (to ensure the test article is not dosed on compromised skin) but remains on the left side of the animal.
On the day prior to challenge dose administration, the test, placebo control article, challenge control, DNCB test, and DNCB challenge control animals are weighed, and the hair is removed from the right side of the animals.

[2] = system: Human skin from cosmetic reduction surgery; test: Skin penetration (IVPT), vertical diffusion cell (Method A); assay type: in vitro ADME
Description: The skin is dosed with approx. 6 mg of formulation to achieve a dose of ˜ 10 mg/cm2. Receptor solution is collected at pre-determined intervals over the course of 24 hours and analyzed using a liquid chromatography with tandem mass spectrometry (LC-MS/MS) analytical method.
Following 24 hours, the residual formulation is removed from the surface of the skin. The skin surface is tape-stripped up to five times to remove residual formulation and the top of the skin surface layers (Stratum Corneum). The epidermis is then heat-separated from the dermis. The active agent is extracted from the skin layers and the amount of active agent delivered to the epidermis and dermis is then determined by LC-MS/MS.

[3] = AD murine model: body weight
Description: (§1) Atopic Dermatitis is induced by once daily application for 38 days of 100 μl of 0.5% 2,4-dinitrochlorobenzene (DNCB) solution onto the shaved back skin of mice. Starting on day 32, test formulations are administered once daily onto the shaved back skin of mice in addition to DNCB. Several measurements are taken at different time points:
Daily from Day 32: Body weight, mortality, behaviour (scratching), general condition, AD index.

[4] = cited from earlier work
[5] = Solubility test of tofacitinib citrate in solvents and excipients (Method D); assay type: physicochemical
Description: Saturated solutions of tofacitinib citrate in various solvents are generated by agitating (stirring) an excess amount of solid crystalline tofacitinib citrate in the corresponding solvent at ambient conditions. […] An additional analysis is performed after 48 hours of agitation to confirm the determined saturated concentration.

[6] = Stability of tofacitinib citrate solution in 50 mM citrate buffer at different pH, 60° C.; assay type: physicochemical; design: unit not given here
From the text: In one or more embodiments the pH, is about 4, about 4.1, about 4.2, about 4.3, about 4.4, about 4.5, about 4.6, about 4.7, about 4.8, about 4.9 or about 5.

[7] = system: Atopic Dermatitis induced by 2,4-dinitrochlorobenzene (DNCB); test: AD murine model: Atopic Dermatitis Index (ADI, mADI) (Method C); assay type: in vivo; details: DNCB induced mice
From the text: In the mouse model the positive control is observed to cause a marked weight loss and thinning of the skin and this can be perceived to mask the scoring observed with the other parameters and omitting it may on one level provide a clearer representation of the treatment potential of the combination since no marked weight loss or thinning is noted other than with the positive control.
The presence of erythema/haemorrhage is scored based on the following scoring grid: • 0=no or no more erythema/haemorrhage on the skin, • 1=weak erythema/haemorrhage on the skin, • 2=moderate erythema/haemorrhage on the skin, • 3=severe erythema/haemorrhage on the skin.
The presence of edema/thickening is scored based on the following scoring grid: • 0=no or no more edema/thickening of the skin, • 1=weak edema/thickening of the skin, • 2=moderate edema/thickening of the skin, • 3=severe edema/thickening of the skin.
The presence of excoriation/erosion is scored based on the following scoring grid: • 0=no or no more excoriation/erosion of the skin, • 1=weak excoriation/erosion of the skin, • 2=moderate excoriation/erosion of the skin, • 3=severe excoriation/erosion of the skin.
The presence of dryness/peeling is scored based on the following scoring grid: • 0=no or no more dryness/peeling of the skin, • 1=weak dryness/peeling of the skin, • 2=moderate dryness/peeling of the skin, • 3=severe dryness/peeling of the skin.
Several measurements are taken at different time points: […]

[8] = human, in vivo
Description: (§2) Values below the limit of concentration are omitted from determination of geometric mean and geometric % CV.
(§3) Frozen samples are thawed at room temperature and homogenized by vortexing. 10 μL of ISTD2 and 104, of Methanol/Water (50/50, v/v) to each sample (exception blank samples for which 20.0 μL Methanol/Water (50/50, v/v) is added) is addeded to Eppendorf tubes each containing 100 μL sample. 300 μL of acetonitrile is added to each sample and vortexed for additional 10 sec. Next samples are centrifuged for 10 min at 14000 rpm at 5° C. 310 μL of the supernatant is transferred into a 96-DWP. Samples are evaporated at approximately 40° C. (turbovap 96) under N2. 100 μL mobile phase A (see table below) is added to each sample and the 96-DWP is sealed with heatsealing foil and shaken for 5 min on a Vortex-shaker and then centrifuged for 5 min with settings 4500 rpm at 5° C. The 96-DWP is transferred to the autosampler and then the samples are diluted by 100-fold, first by adding 10 μl of sample in 904, of blank plasma/water (dilution 1/10) and then by pipetting 104, of sample diluted 10 fold in 904, of blank plasma (dilution 1/100). The diluted samples are vortexed for 5 sec and processed.
(§4) After, the analyte is separated on a Luna Omega Polar C18 column (50×2.1 mm, 3 μm) with gradient elution of a mobile phase composed of water/acetonitrile/ammonium formate/formic acid it is analyzed using electrospray ionization (ESI) tandem mass spectrometry (MS/MS) in the multiple reaction monitoring mode (MRM).

[9] = Chemical stability of formulations (Method H); assay type: physicochemical; details: gel with Tofacitinib Citrate 1.0% and Fingolimod HCl 0.01% (Table 38)
Description: Where another active agent such as fingolimod is present in the formulations the samples are analyzed for that active agent and its degradation products by HPLC. […] The gradient elution is employed.

clinical = details: human, in vivo
Description: as §2, §3, §4

[10] = system: Atopic Dermatitis induced by DNCB; design: species or system mice; details: mouse, in vivo
Description: as §1
Day 39: Histological analysis of skin samples, microscopic scoring of AD, blood assays, assay for pro-inflammatory cytokines IL-1β, IL-6, IL-18, TNF-α, IgE, and histamine assays.

[11] = Ex 43 Table 43 (fingolimod and tofacitinib)
[12] = Ex 42 Table 42 (fingolimod alone)

For `O=[N+]([O-])c1ccc(Cl)c([N+](=O)[O-])c1` [DNCB, 2,4-dinitrochlorobenzene], the “test animals with dermal scores of 1” value ([1]; 0.05% w/v DNCB challenge, 24-hour scoring interval) was 4/10, the “test animals with erythema scores of 1” value ([1]; 24-hour scoring interval) was 5/10 and the “test animals with erythema scores of 2” value ([1]; 24-hour scoring interval) was 5/10. For the same molecule, the “test animals with erythema scores of 1” value ([1]; 48-hour scoring interval) was 6/10, the “test animals with erythema scores of 2” value ([1]; 48-hour scoring interval) was 4/10 and the “Group mean dermal score at challenge” value ([1]; challenge with 0.05% w/v DNCB in acetone and ethanol, control animals 0.25) was 0.6. The “Group mean dermal score at challenge” value ([1]; challenge with 0.1% w/v DNCB in acetone and ethanol, control animals 0.375) was 1.45.
With `CCCCCCCCc1ccc(CCC(N)(CO)CO)cc1` [Fingolimod HCl 0.011%] the “Dermis concentration, ng (based on the Mean)” value [2, 11] was 14.82 ng and the “Epidermis concentration, ng (based on the Mean)” value [2, 11] was 16.21 ng.
In the case of `CCCCCCCCc1ccc(CCC(N)(CO)CO)cc1` [Fingolimod HCl 0.022%], the “Dermis concentration, ng (based on the Mean)” value [2, 12] is reported as 49.16 ng and the “Epidermis concentration, ng (based on the Mean)” value [2, 12] is reported as 37.5 ng.
For `CCCCCCCCc1ccc(CCC(N)(CO)CO)cc1` [Fingolimod hydrochloride], the “tolerability (body weight)” value ([3]; fingolimod AD study, 0.1% w/w and 1% w/w) is given as “not well tolerated”, the solubility ([4]; ethanol) is given as “soluble” and the solubility ([4]; range from pH 1.2-4.5) is given as “freely soluble”. The solubility ([4]; water and methanol) was “freely soluble”.
In the case of `C[C@@H]1CCN(C(=O)CC#N)C[C@@H]1N(C)c1ncnc2[nH]ccc12` [Tofacitinib citrate], the “Solubility of TOF Citrate” value ([5]; in 0.02% HCl) is reported as 4.06 mg/g, the “Solubility of TOF Citrate” value ([5]; in 0.05% NaOH) is reported as “ND (degraded)” and the “Solubility of TOF Citrate” value ([5]; in Benzyl Alcohol) is reported as 0.81 mg/g. For the same molecule, the “Solubility of TOF Citrate” value ([5]; in DMSO) was >150 mg/g, the “Solubility of TOF Citrate” value ([5]; in Diisopropyl adipate) was 0.02 mg/g and the “Solubility of TOF Citrate” value ([5]; in Dimethyl isosorbate) was 1.27 mg/g. For the same molecule, the “Solubility of TOF Citrate” value ([5]; in Ethanol) was 0.61 mg/g, the “Solubility of TOF Citrate” value ([5]; in Glycerin) was 0.97 mg/g and the “Solubility of TOF Citrate” value ([5]; in Hexylene Glycol) was 0.25 mg/g. The “Solubility of TOF Citrate” value ([5]; in Isopropyl Alcohol) was 0.24 mg/g, the “Solubility of TOF Citrate” value ([5]; in Isopropyl myristate) was <0.02 mg/g and the “Solubility of TOF Citrate” value ([5]; in MCT oil (Caprylic/capric triglycerides)) was <0.01 mg/g. The “Solubility of TOF Citrate” value ([5]; in Oleyl alcohol) was 0.09 mg/g, the “Solubility of TOF Citrate” value ([5]; in PPG-11 Stearyl ether) was 0.02 mg/g and the “Solubility of TOF Citrate” value ([5]; in Polyethylene Glycol 200) was 5.16 mg/g. The “Solubility of TOF Citrate” value ([5]; in Polyethylene Glycol 400) was 6.96 mg/g, the “Solubility of TOF Citrate” value ([5]; in Propylene Glycol) was 1.70 mg/g and the “Solubility of TOF Citrate” value ([5]; in Transcutol) was 2.01 mg/g. For the same molecule, the “Solubility of TOF Citrate” value ([5]; in Water) was 2.77 mg/g, the “Imp B” value ([6]; pH 4.5, 2 w) was 0.10 and the “RRT 1.29” value ([6]; pH 5, 1 w) was 0.09. For the same molecule, the “RRT 1.42” value ([6]; pH 5, 1 w) was 0.14 and the “RRT 1.29” value ([6]; pH 5, 2 w) was 0.08.
For `CC1(C)O[C@@H]2C[C@H]3[C@@H]4CCC5=CC(=O)C=C[C@]5(C)[C@@]4(F)[C@@H](O)C[C@]3(C)[C@]2(C(=O)CO)O1` [Triamcinolone acetonide], the “Body weight: Weight D32” value ([3]; DNCB induced mice, Example 41, D32 (treatment start), mean) was 18.31, the “Body weight: Weight D39” value ([3]; DNCB induced mice, Example 41, D39, mean) was 15.66 and the “Mean Body Weight Change d39 − d32” value ([3]; DNCB induced mice, Example 41, (+) weight gain, (−) weight loss) was −2.65. For the same molecule, the “ADI breakdown: Dryness-Peeling D39” value ([7]; Example 41, D39) was 0.88, the “ADI breakdown: Edema-Thickening D39” value ([7]; Example 41, D39) was 0.00 and the “ADI breakdown: Erythema-Haemorrhage D39” value ([7]; Example 41, D39) was 0.00. For the same molecule, the “ADI breakdown: Excoriation-Erosion D39” value ([7]; Example 41, D39) was 0.00.
With `C[C@@H]1CCN(C(=O)CC#N)C[C@@H]1N(C)c1ncnc2[nH]ccc12` [tofacitinib] the “AUC(0-12) Median” value [8] was 1.056 ng·h/mL, the “Tmax Geomean” value [8] was 3.00 h and the “Tmax Median” value [8] was 3.00 h. The “Assay of Tofacitinib, % LC” value ([9]; 2 months at 40° C.) was 99.2 % LC, the “Assay of Tofacitinib, % LC” value ([9]; 2 months at 50° C.) was 98.6 % LC and the “Assay of Tofacitinib, % LC” value ([9]; 3 weeks at 5° C.) was 99.3 % LC. The “Assay of Tofacitinib, % LC” value ([9]; 3 weeks at 50° C.) was 99.1 % LC, the AUC(0-t) (clinical; AUC(0-12) Median) was 1.97 ng·h/mL and the AUC(0-t) (clinical; AUC(0-24) Geomean) was 3.21 ng·h/mL. For the same molecule, the AUC(0-t) (clinical; AUC(0-24) Mean) was 4.03 ng·h/mL, the AUC(0-t) (clinical; AUC(0-24) Median) was 3.14 ng·h/mL and the Tmax (clinical; Tmax Geomean) was 5.05 h. The Tmax (clinical; Tmax Median) was 6 h.
In the case of `CC1(C)O[C@@H]2C[C@H]3[C@@H]4CCC5=CC(=O)C=C[C@]5(C)[C@@]4(F)[C@@H](O)C[C@]3(C)[C@]2(C(=O)CO)O1` [triamcinolone acetonide], the “AD Index, Mean ADI values D 39” value ([7]; combination study (Example 41), D 39) is reported as 0.88.
For Triamcinolone, the “Body weight D39, Mean” value ([3]; mouse, in vivo) was 17.7 g, the “Body weight D39 mean” value ([3]; mouse, in vivo) was 17.1 g and the “Mean Body Weight Change d39 − d32” value ([3]; mouse, in vivo) was −2.80. For the same molecule, the “skin thinner than vehicle-treated normal skin” value [10] was “about 0.8 fold”.
